Activity calls are given as the source filed them. The rule behind the calls is not given here.
Legend:
Gamma-secretase [1] = experiment: Modulation of gamma-secretase-mediated cleavage of human APP Swedish and London mutation expressed in HEK293 cells assessed as inhibition of amyloid beta42 production after 5 hrs by sandwich immunoassay; assay type: cell-based
[2] = molecular target: T1, Gamma-secretase (Homo sapiens) (UniProt Q96BI3+Q9NZ42+Q8WW43+P49768+Q92542+P49810); experiment: Modulation of gamma-secretase-mediated cleavage of human APP Swedish and London mutation expressed in HEK293 cells assessed as reduction of total amyloid beta/amyloid beta42 ratio after 5 hrs by sandwich immunoassay; assay type: cell-based
Gamma-secretase [3] = experiment: Modulation of gamma-secretase-mediated cleavage of human APP Swedish and London mutation expressed in HEK293 cells assessed as reduction of total amyloid beta level after 5 hrs by sandwich immunoassay; assay type: cell-based
[4] = Dissociation constant, pKa of the compound; assay type: physicochemical
[5] = Chemical stability of the compound in aqueous 0.1 N HCl/MeOH (1:1) assessed as deterioration of enantiomaric excess after 7 days; assay type: physicochemical; settings: buffer, 168 h
Rattus norvegicus [6] = experiment: Antialzheimer activity in po dosed CD rat assessed as reduction in amyloid beta42 level in CSF after 3 hrs by alphaLISA analysis relative to amyloid beta40 level; assay type: functional, organism-based
Rattus norvegicus [7] = experiment: Antialzheimer activity in CD rat assessed as reduction in amyloid beta42 level in cortex administered as po for 6 days by alphaLISA analysis relative to total amyloid beta40 level; assay type: functional, organism-based
Rattus norvegicus [8] = experiment: Antialzheimer activity in po dosed CD rat assessed as reduction in amyloid beta42 level in cortex after 3 hrs by alphaLISA analysis relative to total amyloid beta level; assay type: functional, organism-based
Rattus norvegicus [9] = experiment: Antialzheimer activity in CD rat assessed as reduction in amyloid beta42 level in CSF administered as po for 6 days by alphaLISA analysis relative to total amyloid beta40 level; assay type: functional, organism-based
[10] = molecular target: T1, Gamma-secretase (Homo sapiens); experiment: Modulation of gamma-secretase-mediated cleavage of human APP Swedish and London mutation expressed in HEK293 cells assessed as inhibition of amyloid beta39 production at 10 uM by SELDI-MS analysis; assay type: cell-based
Rattus norvegicus [11] = experiment: Antialzheimer activity in po dosed CD rat assessed as reduction in amyloid beta42 level in CSF after 3 hrs by alphaLISA analysis relative to total amyloid beta level; assay type: functional, organism-based
[12] = molecular target: T1, Gamma-secretase (Homo sapiens); experiment: Modulation of gamma-secretase-mediated cleavage of human APP Swedish and London mutation expressed in HEK293 cells assessed as increase in amyloid beta37 production at 10 uM by SELDI-MS analysis; assay type: cell-based
Rattus norvegicus [13] = experiment: Antialzheimer activity in po dosed CD rat assessed as reduction in amyloid beta42 level in plasma after 3 hrs by alphaLISA analysis relative to total amyloid beta level; assay type: functional, organism-based
Rattus norvegicus [14] = experiment: Antialzheimer activity in CD rat assessed as reduction in amyloid beta42 level in cortex administered as po for 6 days by alphaLISA analysis relative to total amyloid beta level; assay type: functional, organism-based
[15] = molecular target: T1, Gamma-secretase (Homo sapiens); experiment: Modulation of gamma-secretase-mediated cleavage of human APP Swedish and London mutation expressed in HEK293 cells assessed as inhibition of amyloid beta40 production at 10 uM by SELDI-MS analysis; assay type: cell-based
Rattus norvegicus [16] = experiment: Antialzheimer activity in CD rat assessed as reduction in amyloid beta42 level in plasma administered as po for 6 days by alphaLISA analysis relative to total amyloid beta40 level; assay type: functional, organism-based
Rattus norvegicus [17] = experiment: Antialzheimer activity in po dosed CD rat assessed as reduction in amyloid beta42 level in plasma after 3 hrs by alphaLISA analysis relative to amyloid beta40 level; assay type: functional, organism-based
Rattus norvegicus [18] = experiment: Antialzheimer activity in CD rat assessed as reduction in amyloid beta42 level in plasma administered as po for 6 days by alphaLISA analysis relative to total amyloid beta level; assay type: functional, organism-based
Rattus norvegicus [19] = experiment: Antialzheimer activity in po dosed CD rat assessed as reduction in amyloid beta42 level in cortex after 3 hrs by alphaLISA analysis relative to amyloid beta40 level; assay type: functional, organism-based
[20] = molecular target: T1, Gamma-secretase (Homo sapiens); experiment: Modulation of gamma-secretase-mediated cleavage of human APP Swedish and London mutation expressed in HEK293 cells assessed as inhibition of amyloid beta42 production at 10 uM by SELDI-MS analysis; assay type: cell-based
Rattus norvegicus [21] = experiment: Antialzheimer activity in CD rat assessed as reduction in amyloid beta42 level in CSF administered as po for 6 days by alphaLISA analysis relative to total amyloid beta level; assay type: functional, organism-based
[22] = molecular target: T1, Gamma-secretase (Homo sapiens); experiment: Modulation of gamma-secretase-mediated cleavage of human APP Swedish and London mutation expressed in HEK293 cells assessed as increase in amyloid beta38 production at 10 uM by SELDI-MS analysis; assay type: cell-based
[23] = Chemical stability of the compound under neutral conditions; assay type: physicochemical
[24] = Chemical stability of the compound in aqueous 0.1 N HCl assessed as decomposition to corresponding acetophenone after 3 hrs; assay type: physicochemical; settings: buffer
Gamma-secretase [25] = experiment: Modulation of gamma-secretase-mediated cleavage of human APP Swedish and London mutation expressed in HEK293 cells assessed as inhibition of amyloid beta40 production after 5 hrs by sandwich immunoassay; assay type: cell-based
[26] = Aqueous solubility of the compound at pH 3.5; assay type: physicochemical; settings: aqueous medium
[27] = Lipophilicity, log D of the compound at pH 7.4; assay type: physicochemical; settings: buffer
[28] = molecular target: Voltage-gated inwardly rectifying potassium channel KCNH2 (Homo sapiens, UniProt Q12809); experiment: Inhibition of human ERG by cell based voltage clamp assay
Voltage-gated inwardly rectifying potassium channel KCNH2, sequence (Q12809 whole entry): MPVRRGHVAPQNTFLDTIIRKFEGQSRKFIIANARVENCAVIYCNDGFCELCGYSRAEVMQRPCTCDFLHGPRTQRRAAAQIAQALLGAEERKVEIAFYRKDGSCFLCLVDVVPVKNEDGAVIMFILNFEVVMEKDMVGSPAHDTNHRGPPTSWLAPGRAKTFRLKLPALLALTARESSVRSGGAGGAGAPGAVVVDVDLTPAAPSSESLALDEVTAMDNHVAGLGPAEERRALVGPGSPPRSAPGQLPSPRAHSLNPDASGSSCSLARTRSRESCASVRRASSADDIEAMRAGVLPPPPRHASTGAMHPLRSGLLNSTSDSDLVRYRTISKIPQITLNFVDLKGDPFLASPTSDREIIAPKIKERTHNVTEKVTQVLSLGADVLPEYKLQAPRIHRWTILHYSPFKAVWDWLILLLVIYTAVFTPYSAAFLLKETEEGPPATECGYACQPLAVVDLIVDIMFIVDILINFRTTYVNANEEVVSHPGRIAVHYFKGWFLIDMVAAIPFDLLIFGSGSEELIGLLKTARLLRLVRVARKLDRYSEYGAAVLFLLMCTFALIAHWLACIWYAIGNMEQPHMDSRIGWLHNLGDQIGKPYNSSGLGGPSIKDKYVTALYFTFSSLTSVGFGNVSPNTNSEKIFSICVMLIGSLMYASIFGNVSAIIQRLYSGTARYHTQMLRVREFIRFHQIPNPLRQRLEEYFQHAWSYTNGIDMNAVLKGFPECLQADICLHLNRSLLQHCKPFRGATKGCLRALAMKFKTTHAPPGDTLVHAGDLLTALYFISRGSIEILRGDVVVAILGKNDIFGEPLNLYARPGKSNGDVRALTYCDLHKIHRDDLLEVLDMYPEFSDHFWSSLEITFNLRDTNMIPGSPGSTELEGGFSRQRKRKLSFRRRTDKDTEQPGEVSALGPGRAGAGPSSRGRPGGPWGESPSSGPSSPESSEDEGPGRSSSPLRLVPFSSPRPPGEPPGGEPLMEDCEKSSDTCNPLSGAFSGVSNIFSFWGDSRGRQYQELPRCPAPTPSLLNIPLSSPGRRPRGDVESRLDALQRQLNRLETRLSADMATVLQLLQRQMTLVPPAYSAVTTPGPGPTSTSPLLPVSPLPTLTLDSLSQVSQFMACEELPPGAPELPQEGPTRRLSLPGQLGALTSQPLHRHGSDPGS

Canis familiaris = organism: Canis familiaris; experiment: Cardiotoxicity in dog assessed as effect on electrocardiographic QTc interval at compound concentration required for pharmacological effect; assay type: toxicity, organism-based, Canis lupus familiaris; settings: in vivo
Rattus norvegicus [29] = experiment: Antialzheimer activity in rat assessed as reduction in amyloid beta42 level in CSF at 30 mg/kg, po; assay type: functional; design: scale not given: the % may be the effect or the level left
[30] = Permeability from apical to basolateral side of human Caco2 cells; assay type: ADME, cell-based; settings: Caco-2, read-out: permeability
Rattus norvegicus [31] = experiment: Antialzheimer activity in rat assessed as reduction in amyloid beta42 level in cortex at 30 mg/kg, po; assay type: functional; design: scale not given: the % may be the effect or the level left

| SMILES | IC50 (Gamma-secretase [1]) [nM] | Ratio IC50 [2] | IC50 (Gamma-secretase [3]) [nM] | further results |
| --- | --- | --- | --- | --- |
| COc1cc(/C=C2\CCCN(C3(c4ccccc4)CCOCC3)C2=O)ccc1-n1cnc(C)c1 | 56 | – | – | – |
| COc1cc(/C=C2\CCCN3C2=NO[C@]3(CN(C)C(C)=O)c2ccc(F)cc2)ccc1-n1cnc(C)c1 | 199 | > 101 | > 20000 | – |
| COc1cc(/C=C2\CCCN3C2=NOC3(CO)c2cc(F)c(F)c(F)c2)ccc1-n1cnc(C)c1 (single isomer, unassigned) | 15 | 1020 | 15800 | – |
| COc1cc(/C=C2\CCCN3C2=NOC3(CO)c2ccccc2)ccc1-n1cnc(C)c1 (single isomer, unassigned) | 96 | 33 | 3210 | – |
| COc1cc(/C=C2\CCCN3C2=NO[C@@]3(CO)c2ccc(F)cc2)ccc1-n1cnc(C)c1 | 7640 | – | > 20000 | pKa [4]: 5.8; Stability [5]: Stable |
| COC[C@]1(c2ccc(F)cc2)ON=C2/C(=C/c3ccc(-n4cnc(C)c4)c(OC)c3)CCCN21 | 122 | 144 | 17500 | – |
| COc1cc(/C=C2\CCCN3C2=NOC3(CO)c2ccc(C#N)cc2)ccc1-n1cnc(C)c1 (single isomer, unassigned) | 117 | > 171 | > 20000 | – |
| COc1cc(/C=C2\CCCN3C2=NO[C@]3(CN(C)S(C)(=O)=O)c2ccc(F)cc2)ccc1-n1cnc(C)c1 | 72 | 269 | 19300 | – |
| COCCCN(C(=O)/C=C/c1ccc(-n2cnc(C)c2)c(OC)c1)c1cccc2ccccc12 | 60 | – | – | – |
| COc1cc(/C=C2\CCCN3C2=NO[C@@]3(c2ccc(F)cc2)[C@@H](C)O)ccc1-n1cnc(C)c1 | 46 | 350 | 16200 | – |
| COc1cc(/C=C2\CCCN3C2=NOC[C@@H]3c2cc(F)c(F)c(F)c2)ccc1-n1cnc(C)c1 | – | – | – | Activity (Rattus norvegicus [6]): Dose-dependent effect; Activity (Rattus norvegicus [7]): Dose-dependent effect; Activity (Rattus norvegicus [8]): Dose-dependent effect; Activity (Rattus norvegicus [9]): Dose-dependent effect; Activity [10]: Active; Activity (Rattus norvegicus [11]): Dose-dependent effect; Activity [12]: Active; Activity (Rattus norvegicus [13]): Dose-dependent effect; Activity (Rattus norvegicus [14]): Dose-dependent effect; Activity [15]: Active; Activity (Rattus norvegicus [16]): Dose-dependent effect; Activity (Rattus norvegicus [17]): Dose-dependent effect; Activity (Rattus norvegicus [18]): Dose-dependent effect; Activity (Rattus norvegicus [19]): Dose-dependent effect; Activity [20]: Active; Activity (Rattus norvegicus [21]): Dose-dependent effect; Activity [22]: Active |
| COCCCN1C(/C=C/c2ccc(-n3cnc(C)c3)c(OC)c2)=NOC1(C)c1ccc(F)cc1 (racemic) | 187 | – | – | Stability [23]: Stable; Stability [24]: Unstable; IC50 (Gamma-secretase [25]): 2000 nM |
| c1ccc(-n2ccnc2)cc1 | – | – | – | pKa [4]: 5.1 |
| CNC[C@]1(c2ccc(F)cc2)ON=C2/C(=C/c3ccc(-n4cnc(C)c4)c(OC)c3)CCCN21 | 191 | > 105 | > 20000 | – |
| COc1cc(/C=C2\CCCN3C2=NO[C@]3(CN(C)C)c2ccc(F)cc2)ccc1-n1cnc(C)c1 | 196 | 96 | 18800 | – |
| COc1cc(/C=C2\CCCN3C2=NOC3(CO)c2ccccc2F)ccc1-n1cnc(C)c1 (single isomer, unassigned) | 53 | 189 | 10100 | – |
| COc1cc(/C=C2\CCCN3C2=NO[C@@]3(c2ccc(F)cc2)[C@H](C)O)ccc1-n1cnc(C)c1 | 89 | > 225 | > 20000 | – |
| COc1cc(/C=C2\CCCN3C2=NOC[C@@H]3c2cc(F)c(F)c(F)c2)ccc1-n1cnc(C)c1.Cl | – | – | – | solubility [26]: > 100 mM; logD [27]: 5.29 |
| COc1cc(/C=C2\CCCN3C2=NOC3(CO)c2cncc(F)c2)ccc1-n1cnc(C)c1 (single isomer, unassigned) | 106 | > 189 | > 20000 | – |
| COc1cc(/C=C2\CCCN([C@@H](C)c3ccc(F)cc3)C2=O)ccc1-n1cnc(C)c1 | – | – | – | IC50 [28]: 1200 nM; Activity (Canis familiaris): Non-toxic; Activity (Rattus norvegicus [29]): 55%; Papp A→B [30]: 57.9 ×10⁻⁶ cm/s; Activity (Rattus norvegicus [31]): 44% |
| COc1cc(/C=C2\CCCN3C2=NOC3(CO)c2cc(F)cc(F)c2)ccc1-n1cnc(C)c1 (single isomer, unassigned) | 21 | 316 | 6750 | – |
| COc1cc(/C=C2\CCCN3C2=NO[C@]3(CNCCO)c2ccc(F)cc2)ccc1-n1cnc(C)c1 | 80 | > 250 | > 20000 | – |
| COc1cc(/C=C2\CCCN3C2=NOC3(CO)c2ccc(F)cn2)ccc1-n1cnc(C)c1 (single isomer, unassigned) | 103 | 192 | 19700 | – |
| COc1cc(/C=C2\CCCN3C2=NOC3(CO)c2cccc(F)c2)ccc1-n1cnc(C)c1 (single isomer, unassigned) | 26 | 280 | 7160 | – |
